# Results as given in patent publication US12421212B2, “Substituted benzenecarboxamides as IL-17A modulators” (DiCE Alpha, Inc., priority 2019, dated 2025).
# Biological target: T1, IL-17A/A (Homo sapiens, UniProt Q16552)
# T1 construct: purchased Genscript Z03228
# T1 sequence (Q16552 24-155): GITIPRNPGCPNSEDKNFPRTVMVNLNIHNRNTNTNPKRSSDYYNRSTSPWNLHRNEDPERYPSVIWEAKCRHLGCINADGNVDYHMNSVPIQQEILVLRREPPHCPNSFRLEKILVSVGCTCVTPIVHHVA
# Experiment: IL-17A/A HEK-Blue Cell Assay
# Assay type: cell-based
# Settings: HEK-Blue IL-17A reporter cell line, SEAP readout at A630, 20 hours incubation with IL-17A/A; top concentration 10 uM, 1 uM or 0.3 uM
row,Compound,IL-17A/A inhibition (pIC50)
1,CCC(=O)N[C@@H](C(=O)N1CCN(C)CC1)[C@H](C)c1ccc(NC(=O)[C@@H](NC(=O)c2ccnn2CC)C2CCCCC2)cc1 [Compound 771],"X1a (compounds were evaluated up to 10 uM and did not inhibit activity by >80%, however they showed some activity at 10 uM (less than 80% and more than 20%))"
2,CCC(=O)N[C@H](Cc1ccc(NC(=O)[C@@H](NC(=O)c2nccn2CC)C2CCCCC2)c(F)c1)C(=O)N1CCN(C)CC1 [Compound 772],"X1a (compounds were evaluated up to 10 uM and did not inhibit activity by >80%, however they showed some activity at 10 uM (less than 80% and more than 20%))"
3,CCC(=O)N[C@H](Cc1ccc(NC(=O)[C@@H](NC(=O)c2cc(CC(C)C)nn2CC)C2CCCCC2)c(F)c1)C(=O)N1CCN(C)CC1 [Compound 773],X1b (compounds were evaluated up to 10 uM and inhibited activity at 10 uM by less than 20%)
4,CCC(=O)N[C@H](Cc1ccc(NC(=O)[C@@H](NC(=O)c2c3c(nn2CC)CCC3)C2CCCCC2)c(F)c1)C(=O)N1CCN(C)CC1 [Compound 774],X1b (compounds were evaluated up to 10 uM and inhibited activity at 10 uM by less than 20%)
5,CCC(=O)N[C@H](Cc1ccc(NC(=O)[C@@H](NC(=O)c2ccnn2CC)c2ccccc2)c(F)c1)C(=O)N1CCN(C)CC1 [Compound 775],X1b (compounds were evaluated up to 10 uM and inhibited activity at 10 uM by less than 20%)
6,CCC(=O)N[C@H](Cc1ccc(NC(=O)[C@@H](NC(=O)Cc2c[nH]cn2)C2CCCCC2)c(F)c1)C(=O)N1CCN(C)CC1 [Compound 776],X1b (compounds were evaluated up to 10 uM and inhibited activity at 10 uM by less than 20%)
7,CCC(=O)N[C@H](Cc1ccc(NC(=O)[C@@H](NC(=O)c2c(CO)noc2C)C2CCCCC2)c(F)c1)C(=O)N1CCN(C)CC1 [Compound 777],X1b (compounds were evaluated up to 10 uM and inhibited activity at 10 uM by less than 20%)
8,CCC(=O)N[C@H](Cc1ccc(NC(=O)[C@@H](NC(=O)Cc2ccc(=O)[nH]c2)C2CCCCC2)c(F)c1)C(=O)N1CCN(C)CC1 [Compound 778],X1b (compounds were evaluated up to 10 uM and inhibited activity at 10 uM by less than 20%)
9,CCC(=O)N[C@H](Cc1ccc(NC(=O)[C@@H](NC(=O)c2ccc(C(=O)NC)s2)C2CCCCC2)c(F)c1)C(=O)N1CCN(C)CC1 [Compound 779],"X1a (compounds were evaluated up to 10 uM and did not inhibit activity by >80%, however they showed some activity at 10 uM (less than 80% and more than 20%))"
10,CCC(=O)N[C@H](Cc1ccc(NC(=O)[C@@H](NC(=O)c2ccc(C(=O)NC)n2C)C2CCCCC2)c(F)c1)C(=O)N1CCN(C)CC1 [Compound 780],X1b (compounds were evaluated up to 10 uM and inhibited activity at 10 uM by less than 20%)
11,CCC(=O)N[C@H](Cc1ccc(NC(=O)[C@@H](NC(=O)c2cnc(C(=O)NC)[nH]2)C2CCCCC2)c(F)c1)C(=O)N1CCN(C)CC1 [Compound 781],X1b (compounds were evaluated up to 10 uM and inhibited activity at 10 uM by less than 20%)
12,CCC(=O)N[C@H](Cc1ccc(NC(=O)[C@@H](NC(=O)Cc2cccc(O)c2)C2CCCCC2)c(F)c1)C(=O)N1CCN(C)CC1 [Compound 782],X1b (compounds were evaluated up to 10 uM and inhibited activity at 10 uM by less than 20%)
13,CCC(=O)N[C@H](Cc1ccc(NC(=O)[C@@H](NC(=O)c2cnc(C(=O)NCC(F)F)[nH]2)C2CCCCC2)c(F)c1)C(=O)N1CCN(C)CC1 [Compound 783],X1b (compounds were evaluated up to 10 uM and inhibited activity at 10 uM by less than 20%)

# Same assay, conditions: HEK-Blue IL-17A reporter cell line, SEAP readout at A630, 20 hours incubation with IL-17A/A; top concentration 10 uM, 1 uM or 0.3 uM; read-out: IL-17A/A inhibition (pIC50) (converted)
row,Compound,IC50 [µM]
1,CCC(=O)N[C@H](Cc1ccc(NC(=O)[C@@H](NC(=O)c2ccnn2CC)C2CCCCC2)c(F)c1)C(=O)N1CCN(C2COC2)CC1 [Compound 770],0.1 to 10
